Among the data in patent publication US20230365592A1 (Agios Pharmaceuticals, Inc., priority 2022, published 2023) are AC50 values, retold here.

This assay concerns the target T1, human PAH with the R408W mutation (Homo sapiens, UniProt P00439, R408W).
T1 construct: expressed in transfected cells
T1 sequence (P00439 1-452 R408W): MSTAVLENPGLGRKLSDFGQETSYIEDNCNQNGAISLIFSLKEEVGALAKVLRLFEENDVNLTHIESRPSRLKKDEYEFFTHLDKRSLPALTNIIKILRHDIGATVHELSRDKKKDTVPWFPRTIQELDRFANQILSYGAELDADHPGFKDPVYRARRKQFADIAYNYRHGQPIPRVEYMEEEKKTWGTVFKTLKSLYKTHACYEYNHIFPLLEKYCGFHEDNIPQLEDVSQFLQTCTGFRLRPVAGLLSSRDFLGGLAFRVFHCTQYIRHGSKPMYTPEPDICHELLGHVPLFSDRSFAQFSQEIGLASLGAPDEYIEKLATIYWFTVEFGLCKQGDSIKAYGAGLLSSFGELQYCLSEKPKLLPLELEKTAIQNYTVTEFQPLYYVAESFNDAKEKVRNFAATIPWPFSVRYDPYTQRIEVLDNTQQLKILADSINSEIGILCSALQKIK
The assay can be described thus: Cell Based Phenylalanine Flux Assay.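 Further: after compound treatment, cells received sepiapterin plus isotope-labelled Phenylalanine for 4 hours, then labelled Tyrosine in the medium was quantified, 10-point 2-fold dilution series run in duplicate.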 To be noted: A375 cells expressing human R408W PAH; 24 hrs compound incubation; 13C-Tyrosine by LC-MS; average where tested multiple times; read-out: AC50.

In the case of `Fc1cccn2nc([C@@H]3c4nc[nH]c4CCN3c3nnc(-c4ccccn4)o3)cc12` [Example 1613, (S)-2-(4-(4-fluoropyrazolo[1,5-a]pyridin-2-yl)-6,7-dihydro-1H-imidazo[4,5-c]pyridin-5(4H)-yl)-5-(pyridin-2-yl)-1,3,4-oxadiazole], the AC50 (usually the midpoint of the concentration-response curve, whichever way the signal moves) is under 500 nM.
The value for `O=C(c1cnn2cc(N3CCOCC3)ccc12)N1CCc2[nH]cnc2[C@H]1c1cc2c(C(F)(F)F)cccn2n1` [Example 1614, (S)-(6-morpholinopyrazolo[1,5-a]pyridin-3-yl)(4-(4-(trifluoromethyl)pyrazolo[1,5-a]pyridin-2-yl)-6,7-dihydro-1H-imidazo[4,5-c]pyridin-5(4H)-yl)methanone] was 500 to 1000 nM; that for `Fc1cccn2nc([C@@H]3c4nc[nH]c4CCN3c3ncccn3)cc12` [Example 1616, (S)-4-(4-fluoropyrazolo[1,5-a]pyridin-2-yl)-5-(pyrimidin-2-yl)-4,5,6,7-tetrahydro-1H-imidazo[4,5-c]pyridine] was under 500 nM.
In the case of `Fc1cccn2nc([C@H]3c4nc[nH]c4CCN3c3ncccn3)cc12` [Example 1617, (R)-4-(4-fluoropyrazolo[1,5-a]pyridin-2-yl)-5-(pyrimidin-2-yl)-4,5,6,7-tetrahydro-1H-imidazo[4,5-c]pyridine] it was over 5000 nM; in that of `Cc1cccn2nc([C@@H]3c4nc[nH]c4CCN3c3ncccn3)cc12` [Example 1618, (S)-4-(4-methylpyrazolo[1,5-a]pyridin-2-yl)-5-(pyrimidin-2-yl)-4,5,6,7-tetrahydro-1H-imidazo[4,5-c]pyridine], under 500 nM.
In the case of `Cc1cccn2nc([C@H]3c4nc[nH]c4CCN3c3ncccn3)cc12` [Example 1619, (R)-4-(4-methylpyrazolo[1,5-a]pyridin-2-yl)-5-(pyrimidin-2-yl)-4,5,6,7-tetrahydro-1H-imidazo[4,5-c]pyridine] it was 1000 to 5000 nM; in that of `Cc1cccn2nc([C@H]3c4nc[nH]c4CCN3C(=O)c3cnn4cc(-c5ccn(C)n5)ccc34)cc12` [Example 1620, (R)-(6-(1-methyl-1H-pyrazol-3-yl)pyrazolo[1,5-a]pyridin-3-yl)(4-(4-methylpyrazolo[1,5-a]pyridin-2-yl)-6,7-dihydro-1H-imidazo[4,5-c]pyridin-5(4H)-yl)methanone], over 5000 nM.
Consider `Cc1cccn2nc([C@@H]3c4nc[nH]c4CCN3C(=O)c3cnn4cc(-c5ccn(C)n5)ccc34)cc12` [Example 1621, (S)-(6-(1-methyl-1H-pyrazol-3-yl)pyrazolo[1,5-a]pyridin-3-yl)(4-(4-methylpyrazolo[1,5-a]pyridin-2-yl)-6,7-dihydro-1H-imidazo[4,5-c]pyridin-5(4H)-yl)methanone], for which the AC50 was under 500 nM.
In the case of `Clc1cccn2nc([C@@H]3c4nc[nH]c4CCN3c3nnc(-c4ccccn4)o3)cc12` [Example 1623, (S)-2-(4-(4-chloropyrazolo[1,5-a]pyridin-2-yl)-6,7-dihydro-1H-imidazo[4,5-c]pyridin-5(4H)-yl)-5-(pyridin-2-yl)-1,3,4-oxadiazole] it was under 500 nM; in that of `FC(F)c1cccc2cc([C@@H]3c4nc[nH]c4CCN3c3nnc(-c4ccccn4)o3)nn12` [Example 1626, (S)-2-(4-(7-(difluoromethyl)pyrazolo[1,5-a]pyridin-2-yl)-6,7-dihydro-1H-imidazo[4,5-c]pyridin-5(4H)-yl)-5-(pyridin-2-yl)-1,3,4-oxadiazole], 500 to 1000 nM.
The value for `Cc1cccn2nc([C@@H]3c4nc[nH]c4CCN3C(=O)c3cnn4cc(-c5cnn(C)c5)ccc34)cc12` [Example 1630, (S)-(6-(1-methyl-1H-pyrazol-4-yl)pyrazolo[1,5-a]pyridin-3-yl)(4-(4-methylpyrazolo[1,5-a]pyridin-2-yl)-6,7-dihydro-1H-imidazo[4,5-c]pyridin-5(4H)-yl)methanone] was 500 to 1000 nM; that for `Cn1ccc(-c2ccc3c(C(=O)N4CCc5[nH]cnc5[C@H]4c4cc5cccc(C(F)(F)F)n5n4)cnn3c2)n1` [Example 1632, (S)-(6-(1-methyl-1H-pyrazol-3-yl)pyrazolo[1,5-a]pyridin-3-yl)(4-(7-(trifluoromethyl)pyrazolo[1,5-a]pyridin-2-yl)-6,7-dihydro-1H-imidazo[4,5-c]pyridin-5(4H)-yl)methanone] was 500 to 1000 nM; that for `CN(C)Cc1ccc2c(C(=O)N3CCc4[nH]cnc4[C@H]3c3cc4c(Cl)cccn4n3)cnn2c1` [Example 1634, (S)-(4-(4-chloropyrazolo[1,5-a]pyridin-2-yl)-6,7-dihydro-1H-imidazo[4,5-c]pyridin-5(4H)-yl)(6-((dimethylamino)methyl)pyrazolo[1,5-a]pyridin-3-yl)methanone] was 500 to 1000 nM.
In the case of `Cc1cccn2nc([C@@H]3c4nc[nH]c4CCN3c3nnc(-c4ccccn4)o3)cc12` [Example 1637, (S)-2-(4-(4-methylpyrazolo[1,5-a]pyridin-2-yl)-6,7-dihydro-1H-imidazo[4,5-c]pyridin-5(4H)-yl)-5-(pyridin-2-yl)-1,3,4-oxadiazole] it was under 500 nM.
Regarding `Cc1cccc2cc([C@@H]3c4nc[nH]c4CCN3c3nnc(-c4ccccn4)o3)nn12` [Example 1640, (S)-2-(4-(7-methylpyrazolo[1,5-a]pyridin-2-yl)-6,7-dihydro-1H-imidazo[4,5-c]pyridin-5(4H)-yl)-5-(pyridin-2-yl)-1,3,4-oxadiazole], the AC50 is 500 to 1000 nM.
Regarding `Cc1cccn2nc([C@H]3c4nc[nH]c4CCN3c3nc4ccccc4o3)cc12` [Example 1642, (R)-2-(4-(4-methylpyrazolo[1,5-a]pyridin-2-yl)-6,7-dihydro-1H-imidazo[4,5-c]pyridin-5(4H)-yl)benzo[d]oxazole], the AC50 was over 5000 nM.
As for `Cc1cccn2nc([C@@H]3c4nc[nH]c4CCN3c3nc4ccccc4o3)cc12` [Example 1643, (S)-2-(4-(4-methylpyrazolo[1,5-a]pyridin-2-yl)-6,7-dihydro-1H-imidazo[4,5-c]pyridin-5(4H)-yl)benzo[d]oxazole], the AC50 was in the range of 500 to 1000 nM.
In the case of `O=C(c1cnn2cc(-c3ccccn3)ccc12)N1CCc2[nH]cnc2[C@H]1c1cc2c(F)cccn2n1` [Example 1644, (S)-(4-(4-fluoropyrazolo[1,5-a]pyridin-2-yl)-6,7-dihydro-1H-imidazo[4,5-c]pyridin-5(4H)-yl)(6-(pyridin-2-yl)pyrazolo[1,5-a]pyridin-3-yl)methanone] it was under 500 nM; in that of `O=C(c1cnn2cc(-c3ccccn3)ccc12)N1CCc2[nH]cnc2[C@@H]1c1cc2c(F)cccn2n1` [Example 1645, (R)-(4-(4-fluoropyrazolo[1,5-a]pyridin-2-yl)-6,7-dihydro-1H-imidazo[4,5-c]pyridin-5(4H)-yl)(6-(pyridin-2-yl)pyrazolo[1,5-a]pyridin-3-yl)methanone], over 5000 nM; in that of `Cn1ccc(-c2ccc3c(C(=O)N4CCc5[nH]cnc5[C@H]4c4cc5c(F)cccn5n4)cnn3c2)n1` [Example 1646, (S)-(4-(4-fluoropyrazolo[1,5-a]pyridin-2-yl)-6,7-dihydro-1H-imidazo[4,5-c]pyridin-5(4H)-yl)(6-(1-methyl-1H-pyrazol-3-yl)pyrazolo[1,5-a]pyridin-3-yl)methanone], 500 to 1000 nM.
`Cn1ccc(-c2ccc3c(C(=O)N4CCc5[nH]cnc5[C@@H]4c4cc5c(F)cccn5n4)cnn3c2)n1` [Example 1647, (R)-(4-(4-fluoropyrazolo[1,5-a]pyridin-2-yl)-6,7-dihydro-1H-imidazo[4,5-c]pyridin-5(4H)-yl)(6-(1-methyl-1H-pyrazol-3-yl)pyrazolo[1,5-a]pyridin-3-yl)methanone]: the AC50 was over 5000 nM.
In the case of `Cc1cccn2nc([C@@H]3c4nc[nH]c4CCN3C(=O)c3cnn4cc(-c5ccccn5)ccc34)cc12` [Example 1648, (S)-(4-(4-methylpyrazolo[1,5-a]pyridin-2-yl)-6,7-dihydro-1H-imidazo[4,5-c]pyridin-5(4H)-yl)(6-(pyridin-2-yl)pyrazolo[1,5-a]pyridin-3-yl)methanone] it was 500 to 1000 nM; in that of `Cc1cccn2nc([C@H]3c4nc[nH]c4CCN3C(=O)c3cnn4cc(-c5ccccn5)ccc34)cc12` [Example 1649, (R)-(4-(4-methylpyrazolo[1,5-a]pyridin-2-yl)-6,7-dihydro-1H-imidazo[4,5-c]pyridin-5(4H)-yl)(6-(pyridin-2-yl)pyrazolo[1,5-a]pyridin-3-yl)methanone], over 5000 nM.
The value for `COc1cccn2nc([C@@H]3c4nc[nH]c4CCN3C(=O)c3nnc(-c4ccn(C(F)(F)F)n4)o3)cc12` [Example 1652, (S)-(4-(4-methoxypyrazolo[1,5-a]pyridin-2-yl)-6,7-dihydro-1H-imidazo[4,5-c]pyridin-5(4H)-yl)(5-(1-(trifluoromethyl)-1H-pyrazol-3-yl)-1,3,4-oxadiazol-2-yl)methanone] was 500 to 1000 nM; that for `COc1cccn2nc([C@H]3c4nc[nH]c4CCN3C(=O)c3nnc(-c4ccn(C(F)(F)F)n4)o3)cc12` [Example 1653, (R)-(4-(4-methoxypyrazolo[1,5-a]pyridin-2-yl)-6,7-dihydro-1H-imidazo[4,5-c]pyridin-5(4H)-yl)(5-(1-(trifluoromethyl)-1H-pyrazol-3-yl)-1,3,4-oxadiazol-2-yl)methanone] was over 5000 nM.
In the case of `O=C(c1nnc(C2CC2)o1)N1CCc2[nH]cnc2[C@H]1c1cc2c(OC(F)F)cccn2n1` [Example 1654, (S)-(5-cyclopropyl-1,3,4-oxadiazol-2-yl)(4-(4-(difluoromethoxy)pyrazolo[1,5-a]pyridin-2-yl)-6,7-dihydro-1H-imidazo[4,5-c]pyridin-5(4H)-yl)methanone] it was 500 to 1000 nM.
